“Also recorded” adds a separate entry of the source. Read-outs that look alike come from different tables or passages of the source.
Experiments:
Parkinson models = details: cited from earlier work
[1] = tested on: 6-hydroxydopamine (6-OHDA) rodent model of Parkinson's disease; test: Dyskinesia: scoring of abnormal involuntary movements (limb, axial, orolingual) after repeated treatment in 6-OHDA lesioned rats; type: in vivo, Sprague-Dawley rats
From the text: The effects on motor performance and the development of dyskinesia following administration of deuterated L-DOPA derivatives with different deuterium enrichment at specific position of the side chain have been compared among each other and to L-DOPA in the 6-hydroxydopamine (6-OHDA) rodent model of Parkinson's disease.
Female Sprague-Dawley rats weighing approximately 225 g were housed on a 12-hour light/dark cycle and kept on standard laboratory diet and water ad libitum. The rats were lesioned by unilateral injection of the neurotoxin 6-OHDA. The lesion was validated by measuring the rotational activity after i.p. injection of 2.5 mg/kg D-amphetamine.
Dyskinesia was evaluated after repeated treatment by scoring the animals for abnormal involuntary movements. The rats were scored, by an observer blinded to the experimental design for limb, axial and orolingual involuntary movements.
The equipotent dose as percent of L-DOPA dose that caused the same effect on motor performance and dyskinesia observed following repeated administration of these doses is shown in Table 2.

[2] = tested on: 6-hydroxydopamine (6-OHDA) rodent model of Parkinson's disease; test: Drug induced contralateral rotations (anti-Parkinson effect, motor performance) in unilaterally 6-OHDA lesioned rats; type: in vivo, Sprague-Dawley rats; details: 6-OHDA rats; for Motor Effect [% of L-DOPA effect]: at equipotent dose, contralateral rotations; for Equipotent Dose [% of L-DOPA dose]: dose causing the same effect on motor performance as L-DOPA; for effect on motor performance (in words): comparison between test items
striatal dopamine = details: compared to L-DOPA, prior art, cited from earlier work
[3] = female, Sprague-Dawley, rat, in vivo
[4] = 6-OHDA rats, repeated administration, equipotent dose
[5] = repeated administration of equipotent doses, 6-OHDA rats

Row | Dyskinesia [% of dyskinesia caused by L-DOPA] [1, 3] | Compound | equi-effective dose compared to L-DOPA (Parkinson models; Parkinson models, literature) | motor activity (in words) (Parkinson models; compared to L-DOPA, several Parkinson models) | dyskinesia at equipotent dose (in words) ([1]; rat, in vivo) | Motor Effect [% of L-DOPA effect] [2] | Equipotent Dose [% of L-DOPA dose] [2] | striatal dopamine levels / output (in words) (striatal dopamine; listed as α, β,β-D3-L-DOPA) | striatal dopamine levels / output (in words) (striatal dopamine; listed as α,β,β-D3-L-DOPA) | dyskinesia at equipotent dose (in words) [1, 4] | Dyskinesia [% of dyskinesia caused by L-DOPA] [1, 5] | effect on motor performance (in words) [2] | striatal dopamine levels / output (in words) (striatal dopamine; listed as α, β-D2-L-DOPA)
1 | 50% of dyskinesia caused by L-DOPA | [2H]C([2H])(c1ccc(O)c(O)c1)[C@]([2H])(N)C(=O)O [Test Item C, L-2-amino-2,3,3-trideutero-3-(3,4-dihydroxyphenyl) propionic acid] | about 60% | improved motor activity compared to L-DOPA | significantly less dyskinesia than L-DOPA | 100% of L-DOPA effect | 60% of L-DOPA dose | increase and prolong the output of striatal dopamine significantly more than L-DOPA | higher longer-lasting striatal dopamine levels than L-DOPA | – | – | – | –
2 | – | [2H][C@@H](c1ccc(O)c(O)c1)[C@]([2H])(N)C(=O)O [Test Item B, S/S-2-amino-2,3-dideutero-3-(3,4-dihydroxyphenyl) propionic acid] | – | – | – | 100% of L-DOPA effect | 30% of L-DOPA dose | – | – | not reduced in comparison to L-DOPA | 100% of dyskinesia caused by L-DOPA | significantly greater compared to α, β, β-D3-L-DOPA [C] and L-DOPA [A] | increase and prolong the output of striatal dopamine significantly more than L-DOPA; also recorded: highest striatal dopamine concentrations
3 | – | L-2-amino-2,3,3*-trideutero-3-(3,4-dihydroxyphenyl) propionic acid [Test Item D] | – | – | – | 100% of L-DOPA effect | 35% of L-DOPA dose | – | – | reduction of dyskinesia as the triple-deuterated α, β, β-D3-L-DOPA [C] | 50% of dyskinesia caused by L-DOPA | motor effect equivalent to the di-deuterated α, β-D2-L-DOPA [B] | –
4 | 100% of dyskinesia caused by L-DOPA | N[C@@H](Cc1ccc(O)c(O)c1)C(=O)O [Test Item A, L-2-amino-3-(3,4-dihydroxyphenyl) propionic acid] | – | – | – | 100% of L-DOPA effect | 100% of L-DOPA dose | – | – | – | – | – | –

From US9763904B2, “Position-specific asymmetric deuterium enriched catecholamine derivatives and medicaments comprising said compounds” (Teva Pharmaceuticals International GmbH, priority 2013, dated 2017)
